Data taken from patent publication US9918939B2, “Formulation of Syk inhibitors” (Gilead Connecticut, Inc., priority 2013, dated 2018).
Counter-ions that a name gives are not always drawn.

Experiment: Stability studies of dry granulation tablet (HPLC, XRPD)
Assay type: physicochemical
Settings: intragranular blend, milled granules, final blend of Formulation 1 (FIG. 4)

With `c1cn2cc(-c3ccc4cn[nH]c4c3)nc(Nc3ccc(N4CCOCC4)cc3)c2n1` [bis-mesylate salt of Formula IA] the “form change by XRPD during processing” value was “no form change”.
